pIC50: −log10 of the molar value.
Experiments:
PRMT5 [1] = target: T1, PRMT5 (Homo sapiens, UniProt O14744); test: PRMT5 biochemical IC50 assay with no cofactor; conditions: PRMT5, no cofactor
T1 construct: purchased Viva (custom protein)
Source text: Table 1 indicates IC50 values (μM) against PRMT5 for exemplary compounds in the presence of SAM as cofactor, with no cofactor, and with MTA as cofactor, respectively (columns 4-6). […] Ki values can be calculated from the IC50 values as described in the Examples section. As detailed in the Examples section, for the assay performed in the presence of SAM, IC50=Ki×1.5 (Ki=IC50/1.5).

PRMT5 [2] = target: T1, PRMT5; test: PRMT5 biochemical IC50 assay with MTA as cofactor; conditions: PRMT5, MTA as cofactor; read-out: MTA IC50
PRMT5 [3] = target: T1, PRMT5; test: PRMT5 biochemical IC50 assay with SAM as cofactor; conditions: PRMT5, SAM as cofactor; read-out: SAM IC50
[4] = system: HAP1 MTAP-intact cell line; test: SDMA in-cell western assay, HAP1 MTAP-intact; assay type: cell-based; conditions: Homo sapiens, HAP1, SDMA in-cell western, HAP1 MTAP-intact; read-out: MTAP HAP1 intact IC50
Summary of the method: (§1)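 IC50 values come from SDMA signal quantified by in-cell western in two HAP1 lines, one with native MTAP levels and one lacking MTAP.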

[5] = system: HAP1 MTAP-deleted cell line; test: Viability assay, MTAP-deleted cell line; assay type: cell-based; conditions: Homo sapiens, read-out: HAP1 MTAP deleted viability
Source text: Table 1 additionally indicates IC50 values in a viability assay for the MTAP-deleted cell line (column 10), indicating the effect of treatment with compound on cell survival.

[6] = system: HAP1 MTAP-deleted cell line; test: SDMA in-cell western assay, HAP1 MTAP-deleted; assay type: cell-based; conditions: for pIC50: Homo sapiens, HAP1, SDMA in-cell western, HAP1 MTAP-deleted; for MTAP intact/deleted ratio: SDMA in-cell western
Summary of the method: as §1

[7] = HAP1, viability assay, HAP1 MTAP-deleted
[8] = read-out: HAP1 MTAP deleted IC50
[9] = IC50 ratio HAP1 MTAP-intact / HAP1 MTAP-deleted
[10] = HAP1, viability IC50, MTAP-deleted cell line
[11] = read-out: HAP 1 MTAP deleted IC50
[12] = HAP1, viability assay, MTAP-deleted cell line
[13] = read-out: No Cofactor/ rel IC50
[14] = HAP1, viability, HAP1 MTAP-deleted cell line
[15] = IC50 ratio HAP1 MTAP-intact vs HAP1 MTAP-deleted

T1 sequence (O14744 whole entry): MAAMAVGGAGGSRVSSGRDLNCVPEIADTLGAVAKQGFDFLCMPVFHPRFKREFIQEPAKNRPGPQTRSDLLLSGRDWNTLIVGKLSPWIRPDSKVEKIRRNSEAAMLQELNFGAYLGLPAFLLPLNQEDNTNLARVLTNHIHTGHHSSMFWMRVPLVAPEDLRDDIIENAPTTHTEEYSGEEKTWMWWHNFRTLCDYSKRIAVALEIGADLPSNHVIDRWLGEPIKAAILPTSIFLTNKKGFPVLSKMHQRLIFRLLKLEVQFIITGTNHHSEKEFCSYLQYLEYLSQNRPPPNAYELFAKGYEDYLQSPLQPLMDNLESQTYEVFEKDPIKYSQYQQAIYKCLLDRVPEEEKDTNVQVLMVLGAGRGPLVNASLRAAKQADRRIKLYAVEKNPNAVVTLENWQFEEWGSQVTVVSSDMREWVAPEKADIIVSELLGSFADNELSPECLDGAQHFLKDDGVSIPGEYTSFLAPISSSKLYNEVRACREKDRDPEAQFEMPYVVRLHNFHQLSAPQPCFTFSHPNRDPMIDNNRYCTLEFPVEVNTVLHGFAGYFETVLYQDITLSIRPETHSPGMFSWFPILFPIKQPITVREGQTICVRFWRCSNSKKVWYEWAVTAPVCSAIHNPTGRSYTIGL
T1 sequence (Q9BQA1 whole entry partner): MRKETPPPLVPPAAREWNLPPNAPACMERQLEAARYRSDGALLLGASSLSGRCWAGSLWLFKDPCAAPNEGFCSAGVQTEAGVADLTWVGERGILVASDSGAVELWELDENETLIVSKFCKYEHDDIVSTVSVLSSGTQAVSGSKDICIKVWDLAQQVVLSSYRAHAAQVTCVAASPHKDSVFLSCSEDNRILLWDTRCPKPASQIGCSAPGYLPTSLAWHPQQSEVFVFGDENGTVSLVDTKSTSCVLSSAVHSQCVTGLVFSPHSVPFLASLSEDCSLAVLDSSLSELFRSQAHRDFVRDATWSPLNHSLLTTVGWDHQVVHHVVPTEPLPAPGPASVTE

Row | Structure (SMILES) | pIC50 (PRMT5 [1]; read-out: No Cofactor/rel IC50) | pIC50 (PRMT5 [2]) | pIC50 (PRMT5 [3]) | pIC50 [4] | pIC50 [6, 8] | pIC50 [6, 11] | pIC50 (PRMT5 [1]; [13]) | pIC50 [5, 7] | MTAP intact/deleted ratio [6, 9] | pIC50 [5, 10] | pIC50 [5, 12] | pIC50 [5, 14] | MTAP intact/deleted ratio [6, 15]
1 | Cc1cc(NC(=O)C(=O)N2C[C@H](C)CC[C@H]2c2cc3[nH]ncc3s2)cnc1N (single isomer, unassigned) [Compound 826] | < 6.30 | 6.30 to 7.30 | < 6.30 | < 6.00 | < 6.00 | – | – | < 5.00 | B (an IC50 ratio greater than or equal to 3 fold but lower than 10 fold) | – | – | – | –
2 | Cc1cc(NC(=O)C(=O)N2C[C@H](C)CC[C@H]2c2cccc3[nH]cnc23)cnc1N (single isomer, unassigned) [Compound 949] | 6.30 to 7.30 | > 7.30 | 6.30 to 7.30 | < 6.00 | – | 6.00 to 7.00 | – | – | A (an IC50 ratio greater than or equal to 10 fold) | – | 5.00 to 6.00 | – | –
3 | Cc1ncc(NC(=O)C(=O)N2C[C@@H](C)CC[C@@H]2c2ccc3sc(C4CCN(C)CC4)nc3c2)cc1C(F)(F)F [Compound 1300, 2-((2R,5)-5-methyl-2-(2-(1-methylpiperidin-4-yl)benzo[d]thiazol-5-yl)piperidin-1-yl)-N-(6-methyl-5-(trifluoromethyl)pyridin-3-yl)-2-oxoacetamide] | – | > 7.30 | 6.30 to 7.30 | 6.00 to 7.00 | – | > 7.00 | > 7.30 | – | A (an IC50 ratio greater than or equal to 10 fold) | – | – | > 6.00 | –
4 | Cc1cc(NC(=O)C(=O)N2C[C@H](C)CC[C@H]2c2ccc3[nH]nc(N)c3c2)cnc1C (single isomer, unassigned) [Compound 948] | 6.30 to 7.30 | > 7.30 | 6.30 to 7.30 | < 6.00 | – | > 7.00 | – | – | A (an IC50 ratio greater than or equal to 10 fold) | – | > 6.00 | – | –
5 | Cc1cc(NC(=O)C(=O)N2C[C@@H](C)CC[C@@H]2c2cccc(N3CCN(C)CC3)c2)cnc1N (single isomer, unassigned) [Compound 1229] | > 7.30 | > 7.30 | > 7.30 | > 7.00 | > 7.00 | – | – | – | – | – | > 6.00 | – | B (an IC50 ratio greater than or equal to 3 fold but lower than 10 fold)
6 | C[C@@H]1CN(C(=O)C(=O)Nc2cnc(N)c(C3CC3)c2)[C@@H](c2ccc3scnc3c2)CC1(F)F (single isomer, unassigned) [Compound 1307] | – | 6.30 to 7.30 | < 6.30 | < 6.00 | – | > 7.00 | 6.30 to 7.30 | – | A (an IC50 ratio greater than or equal to 10 fold) | – | – | > 6.00 | –
7 | CCc1cc(NC(=O)C(=O)N2C[C@@H](C)CC[C@@H]2c2ccc(N3CC[C@@H]4CCN(C)C[C@@H]4C3)cc2)cnc1N (single isomer, unassigned) [Compound 1144] | > 7.30 | > 7.30 | 6.30 to 7.30 | 6.00 to 7.00 | > 7.00 | – | – | – | – | – | > 6.00 | – | A (an IC50 ratio greater than or equal to 10 fold)
8 | Cc1cc(NC(=O)C(=O)N2CC[C@@H](C)C[C@H]2c2ccccc2)cnc1N (racemic) [Compound 640, N-(6-amino-5-methyl-3-pyridyl)-2-[(2R,4S)-4-methyl-2-phenyl-1-piperidyl]-2-oxo-acetamide] | 6.30 to 7.30 | 6.30 to 7.30 | 6.30 to 7.30 | < 6.00 | – | 6.00 to 7.00 | – | – | A (an IC50 ratio greater than or equal to 10 fold) | 5.00 to 6.00 | – | – | –

Second part, led by results:

Row | pIC50 (PRMT5 [1]; read-out: No Cofactor/rel IC50) | pIC50 (PRMT5 [2]) | pIC50 (PRMT5 [3]) | pIC50 [4] | pIC50 [6, 8] | pIC50 [6, 11] | pIC50 (PRMT5 [1]; [13]) | Structure (SMILES) | pIC50 [5, 7] | MTAP intact/deleted ratio [6, 9] | pIC50 [5, 10] | pIC50 [5, 12] | pIC50 [5, 14] | MTAP intact/deleted ratio [6, 15]
9 | 6.30 to 7.30 | > 7.30 | 6.30 to 7.30 | < 6.00 | 6.00 to 7.00 | – | – | C[C@@H]1CC[C@@H](c2cncc(Cl)c2)N(C(=O)C(=O)Nc2cncc(C(N)=O)c2)C1 (racemic) [Compound 791, 5-(2-(2-(5-chloropyridin-3-yl)-5-methylpiperidin-1-yl)-2-oxoacetamido)nicotinamide] | 5.00 to 6.00 | A (an IC50 ratio greater than or equal to 10 fold) | – | – | – | –
10 | 6.30 to 7.30 | > 7.30 | 6.30 to 7.30 | 6.00 to 7.00 | – | 6.00 to 7.00 | – | Cc1cc(NC(=O)C(=O)N2C[C@@H](C)CC[C@@H]2c2ccc(C(F)(F)F)c(Cl)c2)cnc1N (single isomer, unassigned) [Compound 703] | – | C (an IC50 ratio of less than 3 fold) | 5.00 to 6.00 | – | – | –
11 | 6.30 to 7.30 | 6.30 to 7.30 | 6.30 to 7.30 | < 6.00 | – | < 6.00 | – | C[C@@H]1CC[C@@H](c2ccc(S(N)(=O)=O)cc2)N(C(=O)C(=O)Nc2cncc(C(N)=O)c2)C1 (racemic) [Compound 651, rac 5-[[2-[(2S,5R)-5-methyl-2-(4-sulfamoylphenyl)-1-piperidyl]-2-oxo-acetyl]amino]pyridine-3-carboxamide] | – | C (an IC50 ratio of less than 3 fold) | < 5.00 | – | – | –
12 | 6.30 to 7.30 | 6.30 to 7.30 | 6.30 to 7.30 | < 6.00 | 6.00 to 7.00 | – | – | CNC(=O)N1CCCC([C@@H]2CC[C@@H](C)CN2C(=O)C(=O)Nc2cnc(N)c(C)c2)C1 (mixture of isomers) [Compound 814, 1-(2-((6-amino-5-methylpyridin-3-yl)amino)-2-oxoacetyl)-N,5-dimethyl-[2,3′-bipiperidine]-1′-carboxamide] | < 5.00 | A (an IC50 ratio greater than or equal to 10 fold) | – | – | – | –
13 | 6.30 to 7.30 | 6.30 to 7.30 | < 6.30 | < 6.00 | 6.00 to 7.00 | – | – | C[C@@H]1CC[C@@H](c2ccc(Cl)c(C(F)(F)F)c2)N(C(=O)C(=O)Nc2cncc(C(N)=O)c2)C1 (racemic) [Compound 337, rac-5-{2-[(2R,5S)-2-[4-Chloro-3-(trifluoromethyl)phenyl]-5-methylpiperidin-1-yl]-2-oxoacetamido}pyridine-3-carboxamide] | – | A (an IC50 ratio greater than or equal to 10 fold) | – | 5.00 to 6.00 | – | –
14 | < 6.30 | < 6.30 | < 6.30 | < 6.00 | < 6.00 | – | – | CC(=O)Nc1ccc([C@H]2CC[C@H](C)CN2C(=O)C(=O)Nc2cnc(N)c(C)c2)s1 (single isomer, unassigned) [Compound 717] | < 5.00 | C (an IC50 ratio of less than 3 fold) | – | – | – | –
15 | < 6.30 | < 6.30 | < 6.30 | < 6.00 | < 6.00 | – | – | C[C@@H]1CC[C@@H](C2CCC(F)(F)CC2)N(C(=O)C(=O)Nc2cncc(C(N)=O)c2)C1 (single isomer, unassigned) [Compound 486] | – | C (an IC50 ratio of less than 3 fold) | – | < 5.00 | – | –
16 | 6.30 to 7.30 | > 7.30 | 6.30 to 7.30 | < 6.00 | > 7.00 | – | – | C[C@H]1CC[C@H](c2ccc(F)c(Cl)c2)N(C(=O)C(=O)Nc2cncc(C(N)=O)c2)C1 (single isomer, unassigned) [Compound 512] | – | A (an IC50 ratio greater than or equal to 10 fold) | – | 5.00 to 6.00 | – | –
17 | < 6.30 | 6.30 to 7.30 | < 6.30 | < 6.00 | < 6.00 | – | – | COc1ncc(NC(=O)C(=O)N2C[C@@H](C)CC[C@@H]2c2csc3ccccc23)cc1C(N)=O (racemic) [Compound 501, 5-[[2-[2-(benzothiophen-3-yl)-5-methyl-1-piperidyl]-2-oxo-acetyl]amino]-2-methoxy-pyridine-3-carboxamide] | – | B (an IC50 ratio greater than or equal to 3 fold but lower than 10 fold) | – | < 5.00 | – | –
18 | 6.30 to 7.30 | > 7.30 | 6.30 to 7.30 | < 6.00 | 6.00 to 7.00 | – | – | C[C@@H]1CC[C@@H](c2ccc(Cl)c(Cl)c2)N(C(=O)C(=O)Nc2cncc(C(N)=O)c2)C1 (racemic) [Compound 243, rac-5-{2-[(2R,5S)-2-(3,4-Dichlorophenyl)-5-methylpiperidin-1-yl]-2-oxoacetamido}pyridine-3-carboxamide] | – | A (an IC50 ratio greater than or equal to 10 fold) | – | 5.00 to 6.00 | – | –
19 | 6.30 to 7.30 | 6.30 to 7.30 | 6.30 to 7.30 | < 6.00 | – | > 7.00 | – | C[C@H]1CC[C@H](c2ccc(-c3cc[nH]n3)cc2)N(C(=O)C(=O)Nc2cncc(C(N)=O)c2)C1 (single isomer, unassigned) [Compound 626] | – | A (an IC50 ratio greater than or equal to 10 fold) | 5.00 to 6.00 | – | – | –

— US11999727B2 (Tango Therapeutics, Inc., priority 2020, dated 2024)
